pIC50: −log10 of the molar value.
These compounds were tested against KRas G12C (Homo sapiens, UniProt P01116, G12C) (assay: Cellular inhibition of KRas G12C measured by Phospho-ERK in NCI-H358 cells). Details: pERK(Thr202/Tyr204) normalized with GAPDH, NCI-H358 cells, 3 hours; read-out: IC50.
Format: cell-based
Method in brief: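 Ratio of phospho-ERK(Thr202/Tyr204) to GAPDH, read by near-infrared secondary antibodies on fixed, permeabilised NCI-H358 cells, expressed relative to DMSO control. Compound exposure was 3 h at 0.5% DMSO. IC50 values come from 4-parameter curve fits.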

KRas G12C, sequence (P01116 1-188 isoform P01116-2 G12C): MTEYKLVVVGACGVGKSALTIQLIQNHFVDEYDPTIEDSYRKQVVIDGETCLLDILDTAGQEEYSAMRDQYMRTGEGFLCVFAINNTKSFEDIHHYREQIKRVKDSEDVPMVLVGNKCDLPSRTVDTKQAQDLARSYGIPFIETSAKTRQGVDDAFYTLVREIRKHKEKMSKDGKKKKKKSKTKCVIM

Question: How did the pIC50 turn out when C=CC(=O)N1CCN(c2nc(O[C@H](C)CN(C)C)nc3c2CCN(c2cc(O)ccc2OC(F)(F)F)C3)CC1 [Example 78, (R)-1-(4-(2-((1-(dimethylamino)propan-2-yl)oxy)-7-(5-hydroxy-2-(trifluoromethoxy)phenyl)-5,6,7,8-tetrahydropyrido[3,4-d]pyrimidin-4-yl)piperazin-1-yl)prop-2-en-1-one] was run?
Answer: < 6.00

Question: How did the pIC50 turn out when C=CC(=O)N1CCN(c2nc(O[C@H](C)CN(C)C)nc3c2CCN(c2cc(O)ccc2C(F)(F)F)C3)CC1 [Example 79, (R)-1-(4-(2-((1-(dimethylamino)propan-2-yl)oxy)-7-(5-hydroxy-2-(trifluoromethyl)phenyl)-5,6,7,8-tetrahydropyrido[3,4-d]pyrimidin-4-yl)piperazin-1-yl)prop-2-en-1-one] was run?
Answer: < 6.00

Question: C=CC(=O)N1CCN(c2nc(OCC3CN(C)CCN3)nc3c2CCN(c2cc(O)cc4ccccc24)C3)CC1 (stereo not drawn) [Example 80, 1-(4-(7-(3-hydroxynaphthalen-1-yl)-2-((4-methylpiperazin-2-yl)methoxy)-5,6,7,8-tetrahydropyrido[3,4-d]pyrimidin-4-yl)piperazin-1-yl)prop-2-en-1-one] was tested. Which pIC50 did it give?
Answer: < 6.00

Question: C=CC(=O)N1CCN(c2nc(OCCN3CCC(C#N)CC3)nc3c2CCN(c2cc(O)cc4ccccc24)C3)CC1 [Example 81, 1-(2-((4-(4-acryloylpiperazin-1-yl)-7-(3-hydroxynaphthalen-1-yl)-5,6,7,8-tetrahydropyrido[3,4-d]pyrimidin-2-yl)oxy)ethyl)piperidine-4-carbonitrile] was tested. Which pIC50 did it give?
Answer: < 6.00

Question: How did the pIC50 turn out when C=CC(=O)N1CCN(c2nc(OCCCN3CCN(C)CC3)nc3c2CCN(c2cc(O)cc4ccccc24)C3)CC1 [Example 82, 1-(4-(7-(3-hydroxynaphthalen-1-yl)-2-(3-(4-methylpiperazin-1-yl)propoxy)-5,6,7,8-tetrahydropyrido[3,4-d]pyrimidin-4-yl)piperazin-1-yl)prop-2-en-1-one] was run?
Answer: 6.00 to 10.00

Question: C=CC(=O)N1CCN(c2nc(OCCN(C)CCO)nc3c2CCN(c2cc(O)cc4ccccc24)C3)CC1 [Example 83, 1-(4-(2-(2-((2-hydroxyethyl)(methyl)amino)ethoxy)-7-(3-hydroxynaphthalen-1-yl)-5,6,7,8-tetrahydropyrido[3,4-d]pyrimidin-4-yl)piperazin-1-yl)prop-2-en-1-one] was tested. Which pIC50 did it give?
Answer: < 6.00

Question: How did the pIC50 turn out when C=CC(=O)N1CCN(c2nc(O[C@H](C)CN(C)C)nc3c2CCN(c2c(O)ccc(C)c2F)C3)CC1 [Example 84, (R)-1-(4-(2-((1-(dimethylamino)propan-2-yl)oxy)-7-(2-fluoro-6-hydroxy-3-methylphenyl)-5,6,7,8-tetrahydropyrido[3,4-d]pyrimidin-4-yl)piperazin-1-yl)prop-2-en-1-one] was run?
Answer: < 6.00

Question: How did the pIC50 turn out when C=CC(=O)N1CCN(c2nc(OCCN3CCCC3)nc3c2CCN(c2cc(O)cc4ccccc24)C3)CC1 [Example 85, 1-(4-(7-(3-hydroxynaphthalen-1-yl)-2-(2-(pyrrolidin-1-yl)ethoxy)-5,6,7,8-tetrahydropyrido[3,4-d]pyrimidin-4-yl)piperazin-1-yl)prop-2-en-1-one] was run?
Answer: < 6.00

Question: C=CC(=O)N1CCN(c2nc(O[C@H](C)CN(C)C)nc3c2CCN(c2cc(OC(F)(F)F)ccc2O)C3)CC1 [Example 86, (R)-1-(4-(2-((1-(dimethylamino)propan-2-yl)oxy)-7-(2-hydroxy-5-(trifluoromethoxy)phenyl)-5,6,7,8-tetrahydropyrido[3,4-d]pyrimidin-4-yl)piperazin-1-yl)prop-2-en-1-one] was tested. Which pIC50 did it give?
Answer: < 6.00

Question: C=CC(=O)N1CCN(c2nc(O[C@H](C)CN(C)C)nc3c2CCN(c2c(C)ccc(F)c2O)C3)CC1 [Example 87, (R)-1-(4-(2-((1-(dimethylamino)propan-2-yl)oxy)-7-(3-fluoro-2-hydroxy-6-methylphenyl)-5,6,7,8-tetrahydropyrido[3,4-d]pyrimidin-4-yl)piperazin-1-yl)prop-2-en-1-one] was tested. Which pIC50 did it give?
Answer: < 6.00

Question: How did the pIC50 turn out when C=CC(=O)N1CCN(c2nc(OCCN3CCCC[C@@H]3C)nc3c2CCN(c2cc(O)cc4ccccc24)C3)CC1 [Example 88, (S)-1-(4-(7-(3-hydroxynaphthalen-1-yl)-2-(2-(2-methylpiperidin-1-yl)ethoxy)-5,6,7,8-tetrahydropyrido[3,4-d]pyrimidin-4-yl)piperazin-1-yl)prop-2-en-1-one] was run?
Answer: 6.00 to 10.00

Question: With C=CC(=O)N1CCN(c2nc(OCC3CCN(C)C3)nc3c2CCN(c2cc(O)cc4ccccc24)C3)CC1 (stereo not drawn) [Example 89, 1-(4-(7-(3-hydroxynaphthalen-1-yl)-2-((1-methylpyrrolidin-3-yl)methoxy)-5,6,7,8-tetrahydropyrido[3,4-d]pyrimidin-4-yl)piperazin-1-yl)prop-2-en-1-one] as the compound, how does the pIC50 read?
Answer: 6.00 to 10.00

Question: How did the pIC50 turn out when C=CC(=O)N1CCN(c2nc(OCCCN3CCOCC3)nc3c2CCN(c2cc(O)ccc2OC(F)(F)F)C3)CC1 [Example 90, 1-(4-(7-(5-hydroxy-2-(trifluoromethoxy)phenyl)-2-(3-morpholinopropoxy)-5,6,7,8-tetrahydropyrido[3,4-d]pyrimidin-4-yl)piperazin-1-yl)prop-2-en-1-one] was run?
Answer: 6.00 to 10.00

Question: C=CC(=O)N1CCN(c2nc(O[C@H](C)CN(C)C)nc3c2CCN(c2cc(O)cc(OC(F)(F)F)c2)C3)CC1 [Example 91, (R)-1-(4-(2-((1-(dimethylamino)propan-2-yl)oxy)-7-(3-hydroxy-5-(trifluoromethoxy)phenyl)-5,6,7,8-tetrahydropyrido[3,4-d]pyrimidin-4-yl)piperazin-1-yl)prop-2-en-1-one] was tested. Which pIC50 did it give?
Answer: < 6.00

Question: With C=CC(=O)N1CCN(c2nc(OCCN3CCC(C)CC3)nc3c2CCN(c2cc(O)cc4ccccc24)C3)CC1 [Example 92, 1-(4-(7-(3-hydroxynaphthalen-1-yl)-2-(2-(4-methylpiperidin-1-yl)ethoxy)-5,6,7,8-tetrahydropyrido[3,4-d]pyrimidin-4-yl)piperazin-1-yl)prop-2-en-1-one] as the compound, how does the pIC50 read?
Answer: 6.00 to 10.00

Question: C=CC(=O)N1CCN(c2nc(OC(C)CCN3CCOCC3)nc3c2CCN(c2cc(O)cc4ccccc24)C3)CC1 (stereo not drawn) [Example 93, 1-(4-(7-(3-hydroxynaphthalen-1-yl)-2-((4-morpholinobutan-2-yl)oxy)-5,6,7,8-tetrahydropyrido[3,4-d]pyrimidin-4-yl)piperazin-1-yl)prop-2-en-1-one] was tested. Which pIC50 did it give?
Answer: < 6.00

Question: How did the pIC50 turn out when C=CC(=O)N1CCN(c2nc(O[C@H](C)CN(C)C)nc3c2CCN(c2cc(O)ccc2OC)C3)CC1 [Example 94, (R)-1-(4-(2-((1-(dimethylamino)propan-2-yl)oxy)-7-(5-hydroxy-2-methoxyphenyl)-5,6,7,8-tetrahydropyrido[3,4-d]pyrimidin-4-yl)piperazin-1-yl)prop-2-en-1-one] was run?
Answer: < 6.00

Question: With C=CC(=O)N1CCN(c2nc(O[C@H](C)CN(C)C)nc3c2CCN(c2c(C)cccc2O)C3)CC1 [Example 95, (R)-1-(4-(2-((1-(dimethylamino)propan-2-yl)oxy)-7-(2-hydroxy-6-methylphenyl)-5,6,7,8-tetrahydropyrido[3,4-d]pyrimidin-4-yl)piperazin-1-yl)prop-2-en-1-one] as the compound, how does the pIC50 read?
Answer: < 6.00

Question: C=CC(=O)N1CCN(c2nc(OCCCN3CCOCC3)nc3c2CCN(c2cc(O)ccc2OC(C)C)C3)CC1 [Example 96, 1-(4-(7-(5-hydroxy-2-isopropoxyphenyl)-2-(3-morpholinopropoxy)-5,6,7,8-tetrahydropyrido[3,4-d]pyrimidin-4-yl)piperazin-1-yl)prop-2-en-1-one] was tested. Which pIC50 did it give?
Answer: < 6.00

Question: With C=CC(=O)N1CCN(c2nc(OCCN3CCCC[C@H]3C)nc3c2CCN(c2cc(O)cc4ccccc24)C3)CC1 [Example 97, (R)-1-(4-(7-(3-hydroxynaphthalen-1-yl)-2-(2-(2-methylpiperidin-1-yl)ethoxy)-5,6,7,8-tetrahydropyrido[3,4-d]pyrimidin-4-yl)piperazin-1-yl)prop-2-en-1-one] as the compound, how does the pIC50 read?
Answer: 6.00 to 10.00

Question: With C=CC(=O)N1CCN(c2nc(OCCN3CCC[C@H](OC)C3)nc3c2CCN(c2cc(O)cc4ccccc24)C3)CC1 [Example 98, (S)-1-(4-(7-(3-hydroxynaphthalen-1-yl)-2-(2-(3-methoxypiperidin-1-yl)ethoxy)-5,6,7,8-tetrahydropyrido[3,4-d]pyrimidin-4-yl)piperazin-1-yl)prop-2-en-1-one] as the compound, how does the pIC50 read?
Answer: < 6.00

Question: C=CC(=O)N1CCN(c2nc(OCCN3CCC[C@@H](OC)C3)nc3c2CCN(c2cc(O)cc4ccccc24)C3)CC1 [Example 99, (R)-1-(4-(7-(3-hydroxynaphthalen-1-yl)-2-(2-(3-methoxypiperidin-1-yl)ethoxy)-5,6,7,8-tetrahydropyrido[3,4-d]pyrimidin-4-yl)piperazin-1-yl)prop-2-en-1-one] was tested. Which pIC50 did it give?
Answer: < 6.00

Question: How did the pIC50 turn out when C=CC(=O)N1CCN(c2nc(OC3CCN(C4CC4)CC3)nc3c2CCN(c2cc(O)cc4ccccc24)C3)CC1 [Example 100, 1-(4-(2-((1-cyclopropylpiperidin-4-yl)oxy)-7-(3-hydroxynaphthalen-1-yl)-5,6,7,8-tetrahydropyrido[3,4-d]pyrimidin-4-yl)piperazin-1-yl)prop-2-en-1-one] was run?
Answer: < 6.00

Question: C=CC(=O)N1CCN(c2nc(OCCCN3CCCOCC3)nc3c2CCN(c2cc(O)cc4ccccc24)C3)CC1 [Example 101, 1-(4-(2-(3-(1,4-oxazepan-4-yl)propoxy)-7-(3-hydroxynaphthalen-1-yl)-5,6,7,8-tetrahydropyrido[3,4-d]pyrimidin-4-yl)piperazin-1-yl)prop-2-en-1-one] was tested. Which pIC50 did it give?
Answer: 6.00 to 10.00

Question: With C=CC(=O)N1CCN(c2nc(OCCN(CC)CC)nc3c2CCN(c2cc(O)cc4ccccc24)C3)CC1 [Example 102] as the compound, how does the pIC50 read?
Answer: 6.00 to 10.00

Question: With C=CC(=O)N1CCN(c2nc(OCC3CCN(CCOC)C3)nc3c2CCN(c2cc(O)cc4ccccc24)C3)CC1 (stereo not drawn) [Example 103, 1-(4-(7-(3-hydroxynaphthalen-1-yl)-2-((1-(2-methoxyethyl)pyrrolidin-3-yl)methoxy)-5,6,7,8-tetrahydropyrido[3,4-d]pyrimidin-4-yl)piperazin-1-yl)prop-2-en-1-one] as the compound, how does the pIC50 read?
Answer: 6.00 to 10.00

Question: How did the pIC50 turn out when C=CC(=O)N1CCN(c2nc(OCCCN3C[C@@H]4C[C@H]3CO4)nc3c2CCN(c2cc(O)cc4ccccc24)C3)CC1 [Example 104, 1-(4-(2-(3-((1S,4S)-2-oxa-5-azabicyclo[2.2.1]heptan-5-yl)propoxy)-7-(3-hydroxynaphthalen-1-yl)-5,6,7,8-tetrahydropyrido[3,4-d]pyrimidin-4-yl)piperazin-1-yl)prop-2-en-1-one] was run?
Answer: 6.00 to 10.00
